# Reference: article PMC6444227, “Pharmacological Evaluation of Secondary Metabolites and Their Simultaneous Determination in the Arabian Medicinal Plant Plicosepalus curviflorus Using HPTLC Validated Method” (Journal of Analytical Methods in Chemistry, 2019)
# Assays:
# PPARα = target: T1, PPARα (Homo sapiens, UniProt Q07869); test: PPARα reporter gene assay (luciferase fold induction); type: cell-based; conditions: for PPAR alpha agonistic activity, fold induction: dual activation
# T1 construct: expressed in transfected cells
# T1 sequence (Q07869 1-468): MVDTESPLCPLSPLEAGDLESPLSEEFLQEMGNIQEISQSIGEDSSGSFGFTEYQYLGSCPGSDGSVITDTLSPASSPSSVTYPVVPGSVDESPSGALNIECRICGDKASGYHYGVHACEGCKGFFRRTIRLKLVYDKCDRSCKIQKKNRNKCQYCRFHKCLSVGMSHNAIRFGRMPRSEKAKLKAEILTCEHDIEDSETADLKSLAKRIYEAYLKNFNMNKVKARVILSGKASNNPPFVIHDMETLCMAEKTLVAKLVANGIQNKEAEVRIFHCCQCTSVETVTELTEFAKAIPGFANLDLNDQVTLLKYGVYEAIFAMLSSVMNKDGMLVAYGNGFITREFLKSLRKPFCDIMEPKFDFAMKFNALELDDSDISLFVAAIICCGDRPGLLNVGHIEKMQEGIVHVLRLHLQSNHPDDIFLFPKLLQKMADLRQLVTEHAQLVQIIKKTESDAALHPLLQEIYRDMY
# Description: (§1) A reporter gene assay was carried out as described previously. Briefly, upon confluency, the different concentrations of the test samples were exposed to transfected cells for 24 hrs. Vehicle control was taken into consideration when the fold induction in luciferase activity was calculated. Both rosiglitazone and ciprofibrate were used as control drugs for PPARα and PPARγ, respectively.
# (§2) Fold induction in the PPAR activity was detected in response to the methanol fraction and pure compounds according to untreated controls. A fold induction of 1.5 means a 50% increase in PPAR activity. […] Several studies have been carried out with the aim of exploring the potential of selective PPARγ modulators. The dual activator effect of P2 is in agreement with previous literature.
# HepG2 cells = test: Cellular antioxidant assay (decrease in oxidative stress, ABAP); type: cell-based, human
# Description: Human hepatoma cell line (HepG2) was the cell line of choice in this study according to the previously described method. At a density of 60,000 cells/well, the HepG2 cells were seeded in a 96-well plate and incubated for 24 h for confluency. PBS was used for washing the cells, followed by samples treatment. The SpectraMax plate reader was used for reading the plates after addition of 600 μM of ABAP. The area under the curve (AUC) of fluorescence units and time were two parameters used for indication of the percent decrease in oxidative stress. Percent decrease in oxidative stress = 100 − ((AUC sample/AUC control) × 100). Quercetin was used as a positive control.
# [1] = system: Bacillus cereus (ATCC 14579); test: Antibacterial broth microdilution (MIC); type: cell-based; conditions: ATCC14579, read-out: MIC, B. cereus
# [2] = system: Bacillus cereus (ATCC 14579); test: Antibacterial well diffusion; type: cell-based; conditions: 10 µL per well, mean ± SD
# iNOS = iNOS inhibition, nitrite level in LPS-treated macrophages (Griess); type: cell-based, mouse; conditions: for IC50: Mus musculus
# Description: Mouse macrophage (RAW264.7) cells were seeded in the wells of 96-well plates followed by 24 hrs for confluency according to the method described previously. The test samples were treated with LPS (5 μg/mL) and followed by 24-hour incubation as well. The nitrite level in cell supernatant was measured by Griess reagent. The dose response curves gave indication for IC50 values. Parthenolide was used as positive control.
# PPARγ = target: T2, PPARγ (Homo sapiens, UniProt P37231); test: PPARγ reporter gene assay (luciferase fold induction); type: cell-based; conditions: for PPAR gamma agonistic activity, fold induction: dual activation
# T2 construct: expressed in transfected cells
# T2 sequence (P37231 1-505): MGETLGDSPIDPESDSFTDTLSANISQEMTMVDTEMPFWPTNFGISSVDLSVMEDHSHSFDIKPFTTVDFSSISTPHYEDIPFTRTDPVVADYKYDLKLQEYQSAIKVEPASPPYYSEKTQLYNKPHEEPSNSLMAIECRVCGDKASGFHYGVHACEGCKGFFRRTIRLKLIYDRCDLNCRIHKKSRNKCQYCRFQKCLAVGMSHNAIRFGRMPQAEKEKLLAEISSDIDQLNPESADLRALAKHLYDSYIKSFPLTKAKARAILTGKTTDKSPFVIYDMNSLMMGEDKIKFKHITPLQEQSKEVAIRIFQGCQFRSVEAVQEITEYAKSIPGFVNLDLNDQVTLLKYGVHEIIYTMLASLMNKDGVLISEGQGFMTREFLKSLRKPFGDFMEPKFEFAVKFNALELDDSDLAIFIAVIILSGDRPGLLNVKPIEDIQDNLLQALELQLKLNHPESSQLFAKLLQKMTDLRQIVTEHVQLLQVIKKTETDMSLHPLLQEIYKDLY
# Description: as §1, §2
# Staphylococcus aureus [3] = test: Antibacterial broth microdilution (MIC); type: cell-based; conditions: read-out: MIC, S. aureus
# Text: (§3) (CP017183.1), Escherichia fergusonii (CU928158.2), and Pseudomonas aeruginosa (NR-117678.1) and Gram-positive Staphylococcus aureus (CP011526.1) and Bacillus licheniformis (KX785171.1) using well diffusion and broth microdilution techniques as described by Berghe and […] [16]. The bacterial strains were suspended in a nutrient broth for 24 hr, and the suspension then spread on Mueller-Hinton agar. […] Amikacin was used as the positive control.
# [4] = system: Pseudomonas aeruginosa (ATCC 27853); test: Antibacterial broth microdilution (MIC); type: cell-based; conditions: ATCC27853, read-out: MIC, P. aeruginosa
# Text: as §3
# [5] = system: Klebsiella pneumonia (ATCC 700603); test: Antibacterial broth microdilution (MIC); type: cell-based; conditions: Klebsiella pneumoniae, ATCC700603, read-out: MIC, K. pneumonia
# Text: as §3
# [6] = system: Escherichia fergusonii (CU928158.2); test: Antibacterial broth microdilution (MIC); type: cell-based; conditions: read-out: MIC, E. fergusonii
# Text: as §3
# [7] = system: four cancerous cell lines as well as the two normal cell lines; test: Cytotoxicity, whole panel; type: cell-based; conditions: all cell lines
# Description: (§4) Four human cancer cell lines (SK-OV-3, SK-MEL, BT-549 and KB) and two noncancerous kidney cell lines (VERO and LLC-PK1) were measured in the in vitro cytotoxic study. Test samples were added on the cell lines with variable concentrations, followed by 48 h incubation. According to the Borenfreund method, the cell viability was determined at the end of incubation, using doxorubicin as a positive control.
# Staphylococcus aureus [8] = test: Antibacterial well diffusion; type: cell-based; conditions: 10 µL per well, mean ± SD
# Text: as §3
# [9] = system: Pseudomonas aeruginosa (ATCC 27853); test: Antibacterial well diffusion; type: cell-based; conditions: 10 µL per well, mean ± SD
# Text: as §3
# [10] = system: Klebsiella pneumonia (ATCC 700603); test: Antibacterial well diffusion; type: cell-based; conditions: 10 µL per well, mean ± SD
# Text: as §3
# [11] = system: Escherichia fergusonii (CU928158.2); test: Antibacterial well diffusion; type: cell-based; conditions: 10 µL per well, mean ± SD
# Text: as §3
# LLC-PK11 = test: Cytotoxicity assay (Borenfreund method, 48 h); type: cell-based; conditions: NA = no cytotoxic activity upto 100 µg/mL, read-out: Noncancer cells IC50, LLC-PK11
# Description: as §4
# NF-κB = NF-κB luciferase reporter gene assay in PMA-treated SW1353 cells; type: cell-based; conditions: Homo sapiens; SW1353, PMA 70 ng/mL 8 h; NA = no activity up to 100 µg/mL; read-out: NF-kB inhibition (IC50)
# Description: According to the method described earlier, the 96-well plates with density of 1.25 × 10^5 cells per well were seeded with human chondrosarcoma cells (SW1353) transfected with NF-κB luciferase plasmid construct. After incubation for 24 h, cells were treated with the test samples for half an hour followed by PMA (70 ng/mL) for 8 h. Luciferase assay kit (Promega, Madison, WI, USA) was used for determination of luciferase activity, and parthenolide was used as the positive control in this test.
# SK-OV-3 = test: Cytotoxicity assay (Borenfreund method, 48 h); type: cell-based; conditions: Homo sapiens, NA = no cytotoxic activity upto 100 µg/mL, read-out: Cancer cells IC50, SK-OV-3
# Description: as §4
# BT-549 = test: Cytotoxicity assay (Borenfreund method, 48 h); type: cell-based; conditions: Homo sapiens, NA = no cytotoxic activity upto 100 µg/mL, read-out: Cancer cells IC50, BT-549
# Description: as §4
# KB = test: Cytotoxicity assay (Borenfreund method, 48 h); type: cell-based; conditions: Homo sapiens, NA = no cytotoxic activity upto 100 µg/mL, read-out: Cancer cells IC50, KB
# Description: as §4
# SK-MEL = test: Cytotoxicity assay (Borenfreund method, 48 h); type: cell-based; conditions: Homo sapiens, NA = no cytotoxic activity upto 100 µg/mL, read-out: Cancer cells IC50, SK-MEL
# Description: as §4
# VERO = test: Cytotoxicity assay (Borenfreund method, 48 h); type: cell-based; conditions: Chlorocebus sabaeus, NA = no cytotoxic activity upto 100 µg/mL, read-out: Noncancer cells IC50, VERO
# Description: as §4
# [12] = at 250 µg/mL for pure compounds
# [13] = RAW264.7, LPS 5 µg/mL, 24 h, NA = no activity up to 100 µg/mL
smiles,measurement,setting,value
"CC(C)(Oc1ccc(C2CC2(Cl)Cl)cc1)C(=O)O (stereo not shown) [Ciprofibrate, reference compound]",fold induction at 10 µM,"PPARα; control drug at 10 µM, read-out: Fold induction PPAR alpha",2.2
"O=c1c(O)c(-c2ccc(O)c(O)c2)oc2cc(O)cc(O)c12 [Compound P1, quercetin]",% decrease in oxidative stress,HepG2 cells; [12],52%
same,% decrease in oxidative stress,HepG2 cells; positive control at 50 µM,75%
same,MIC,[1],8.4 µg/mL
same,"ZOI diameter, B. cereus",[2],19.3 ± 1.15 mm
same,IC50,"iNOS; RAW264.7, 24 h, RAW264.7, LPS 5 µg/mL, 24 h, NA = no activity up to 100 µg/mL",25 µg/mL
same,iNOS inhibition (IC50),iNOS; [13],48 µg/mL
same,"PPAR gamma agonistic activity, fold induction",PPARγ,no PPAR agonistic activity
same,MIC,Staphylococcus aureus [3],8.3 µg/mL
same,MIC,[4],6.6 µg/mL
same,MIC,[5],6.2 µg/mL
same,MIC,[6],9.3 µg/mL
same,Cytotoxicity (in words),[7],not cytotoxic
same,"ZOI diameter, S. aureus",Staphylococcus aureus [8],18 ± 1 mm
same,"ZOI diameter, P. aeruginosa",[9],21 ± 1 mm
same,"ZOI diameter, K. pneumonia",[10],21.3 ± 1.15 mm
same,"ZOI diameter, E. fergusonii",[11],16.3 ± 0.57 mm
same,IC50,LLC-PK11,55 µg/mL
same,"PPAR alpha agonistic activity, fold induction",PPARα,no PPAR agonistic activity
"Oc1cc(O)c2c(c1)O[C@@H](c1ccc(O)c(O)c1)[C@H](O)C2 [Compound P2, (-)-catechin]",% decrease in oxidative stress,HepG2 cells; [12],39%
same,iNOS inhibition (in words),iNOS,showed iNOS inhibition
same,IC50,iNOS; [13],> 50 µg/mL
same,fold induction at 12.5 µg/mL,"PPARγ; 12.5 µg/mL, 24 hrs, NA = not active, read-out: Fold induction PPAR gamma",1.19
same,fold induction at 25 µg/mL,"PPARγ; 25 µg/mL, 24 hrs, NA = not active, read-out: Fold induction PPAR gamma",1.55
same,fold induction at 50 µg/mL,"PPARγ; 50 µg/mL, 24 hrs, NA = not active, read-out: Fold induction PPAR gamma",1.53
same,"PPAR gamma agonistic activity, fold induction",PPARγ,≥ 1.5 fold
same,MIC,[6],11 µg/mL
same,Cytotoxicity (in words),[7],not cytotoxic
same,"ZOI diameter, E. fergusonii",[11],8 ± 1 mm
same,IC50,LLC-PK11,16 µg/mL
same,fold induction at 12.5 µg/mL,"PPARα; 12.5 µg/mL, 24 hrs, NA = not active, read-out: Fold induction PPAR alpha",1.19
same,fold induction at 25 µg/mL,"PPARα; 25 µg/mL, 24 hrs, NA = not active, read-out: Fold induction PPAR alpha",1.31
same,fold induction at 50 µg/mL,"PPARα; 50 µg/mL, 24 hrs, NA = not active, read-out: Fold induction PPAR alpha",1.47
same,"PPAR alpha agonistic activity, fold induction",PPARα,≥ 1.5 fold
"C=C1C(=O)O[C@H]2[C@H]1CC/C(C)=C/CC[C@@]1(C)O[C@@H]21 [Parthenolide, reference compound]",IC50,iNOS; [13],0.35 ± 0.22 µg/mL
same,IC50,NF-κB,0.5 ± 0.21 µg/mL
"O=C(Oc1cc(O)cc2c1C[C@@H](O)[C@H](c1ccc(O)c(O)c1)O2)c1cc(O)c(O)c(O)c1 [Compound P3, 2S,3R-3,3′,4′,5,7-pentahydroxyflavane-5-O-gallate]",% decrease in oxidative stress,HepG2 cells; [12],57%
same,iNOS inhibition (in words),iNOS,did not show any
same,"PPAR gamma agonistic activity, fold induction",PPARγ,no PPAR agonistic activity
same,Cytotoxicity (in words),[7],not cytotoxic
same,"PPAR alpha agonistic activity, fold induction",PPARα,no PPAR agonistic activity
COc1cccc2c1C(=O)c1c(O)c3c(c(O)c1C2=O)C[C@@](O)(C(=O)CO)C[C@@H]3O[C@H]1C[C@H](N)[C@H](O)[C@H](C)O1 [Doxorubicin],IC50,SK-OV-3,0.8 µg/mL
same,IC50,LLC-PK11,0.85 µg/mL
same,IC50,BT-549,1.93 µg/mL
same,IC50,KB,1.85 µg/mL
same,IC50,SK-MEL,1.23 µg/mL
same,IC50,VERO,> 5 µg/mL
"CN(CCOc1ccc(CC2SC(=O)NC2=O)cc1)c1ccccn1 (stereo not shown) [Rosiglitazone, reference compound]",fold induction at 10 µM,"PPARγ; control drug at 10 µM, read-out: Fold induction PPAR gamma",3.7
"NCC[C@H](O)C(=O)N[C@@H]1C[C@H](N)[C@@H](O[C@H]2O[C@H](CN)[C@@H](O)[C@H](O)[C@H]2O)[C@H](O)[C@H]1O[C@H]1O[C@H](CO)[C@@H](O)[C@H](N)[C@H]1O [AMK, Amikacin, reference compound]",MIC,[1],7.3 µg/mL
same,"ZOI diameter, B. cereus",[2],20 ± 0.9 mm
same,MIC,Staphylococcus aureus [3],6.2 µg/mL
same,MIC,[4],8 µg/mL
same,MIC,[5],5 µg/mL
same,MIC,[6],4.5 µg/mL
same,"ZOI diameter, S. aureus",Staphylococcus aureus [8],24 ± 1 mm
same,"ZOI diameter, P. aeruginosa",[9],18 ± 1.3 mm
same,"ZOI diameter, K. pneumonia",[10],25 ± 0.8 mm
same,"ZOI diameter, E. fergusonii",[11],24 ± 1.5 mm
